We go through 28 compounds from patent US20080287430A1, “Furan Compounds Useful As Ep1 Receptor Antagonists” (priority 2005, published 2008).

Counter-ions that a name gives are not always drawn. Bounds are passed on as bounds.

The target in this assay is T1, human EP1 receptor (Homo sapiens, UniProt P34995).
T1 construct: expressed in transfected cells; host or cells: CHO-K1
T1 sequence (P34995 1-402): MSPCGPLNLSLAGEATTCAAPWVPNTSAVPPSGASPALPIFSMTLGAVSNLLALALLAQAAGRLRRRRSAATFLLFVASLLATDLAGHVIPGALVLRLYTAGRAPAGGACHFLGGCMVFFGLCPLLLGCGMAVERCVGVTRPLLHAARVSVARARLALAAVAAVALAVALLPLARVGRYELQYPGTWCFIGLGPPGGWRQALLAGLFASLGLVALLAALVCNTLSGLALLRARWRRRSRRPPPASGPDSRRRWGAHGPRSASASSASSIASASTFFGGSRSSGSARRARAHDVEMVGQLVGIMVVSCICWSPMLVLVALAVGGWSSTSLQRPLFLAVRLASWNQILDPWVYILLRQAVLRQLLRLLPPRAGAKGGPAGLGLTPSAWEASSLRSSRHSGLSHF
In words: human EP1 calcium mobilisation assay. It is filed as cell-based. The following applies: human EP1, PGE2-induced calcium mobilisation in CHO-K1 cells; free bases or sodium salts; averages of a number of experiments; read-out: functional pKi value (converted). As for the experimental part:
Briefly, the antagonist properties of compounds are assessed by their ability to inhibit the mobilisation of intracellular calcium ([Ca^2+]i) in response to activation of EP1 or EP3 receptors by the natural agonist hormone prostaglandin E2 (PGE2). Increasing concentrations of antagonist reduce the amount of calcium that a given concentration of PGE2 can mobilise. The net effect is to displace the PGE2 concentration-effect curve to higher concentrations of PGE2. The amount of calcium produced is assessed using a calcium-sensitive fluorescent dye such as Fluo-4, AM and a suitable instrument such as a Fluorimetric Imaging Plate Reader (FLIPR). Increasing amounts of [Ca^2+]i produced by receptor activation increase the amount of fluorescence produced by the dye and give rise to an increasing signal. The signal may be detected using the FLIPR instrument and the data generated may be analysed with suitable curve-fitting software.
The human EP1 or EP3 calcium mobilisation assay (hereafter referred to as ‘the calcium assay’) utilises Chinese hamster ovary-K1(CHO-K1) cells into which a stable (pCIN; BioTechniques 20 (1996): 102-110) vector containing either EP1 or EP3 cDNA has previously been transfected. Cells are cultured in suitable flasks containing culture medium such as DMEM:F-12 supplemented with 10% v/v foetal calf serum, 2 mM L-glutamine, 0.25 mg/ml geneticin, 100 μM flurbiprofen and 10 μg/ml puromycin.
For assay, cells are harvested using a proprietary reagent that dislodges cells such as Versene. Cells are re-suspended in a suitable quantity of fresh culture media for introduction into a 384-well plate. Following incubation for 24 hours at 37° C. the culture media is replaced with a medium containing Fluo-4 and the detergent pluronic acid, and a further incubation takes place. Concentrations of compounds are then added to the plate in order to construct concentration-effect curves. This may be performed on the FLIPR in order to assess the agonist properties of the compounds. Concentrations of PGE2 are then added to the plate in order to assess the antagonist properties of the compounds.
The data so generated may be analysed by means of a computerised curve-fitting routine. The concentration of compound that elicits a half-maximal inhibition of the calcium mobilisation induced by PGE2 (pIC50) may then be estimated.
`Clc1ccc(OCc2ccccc2)c(Cc2ccc(-c3nc4ccc(CN5CCCCC5)cc4[nH]3)o2)c1` [Example 141, 2-[5-({5-Chloro-2-[(phenylmethyl)oxy]-phenyl}methyl)-2-furanyl]-5-(1-piperidinylmethyl)-1H-benzimidazoledihydrochloride]: the Ki is less than 1 µM.
As for `O=C(Nc1c(F)cccc1F)c1ccc(Cc2cc(Cl)ccc2OCc2cccc(F)c2F)o1` [Example 87, 5-[(5-Chloro-2-{[(2,3-difluorophenyl)methyl]oxy}-phenyl)methyl]-N-(2,6-difluorophenyl)-2-furancarboxamide], the figure is less than 1 µM.
As for `O=C(Nc1c(F)cccc1F)c1ccc(Cc2cc(Cl)ccc2OCc2ccc(Cl)cc2Cl)o1` [Example 89, 5-[(5-Chloro-2-{[(2,4-dichlorophenyl)methyl]-oxy}phenyl)methyl]-N-(2,6-difluorophenyl)-2-furancarboxamide], the figure is less than 1 µM.
For `CCNCc1ccc2nc(-c3ccc(Cc4cc(Cl)ccc4OCC(C)C)o3)[nH]c2c1` [Example 154, N-({2-[5-({5-Chloro-2-[(2-methylpropyl)oxy]-phenyl}methyl)-2-furanyl]-1H-benzimidazol-5-yl}methyl)ethanaminedihydrochloride], the Ki is less than 1 µM.
The value for `Clc1ccc(OCc2ccccc2)c(Cc2ccc(-c3nc4ccc(CN5CCCC5)cc4[nH]3)o2)c1` [Example 140, 2-[5-({5-Chloro-2-[(phenylmethyl)oxy]-phenyl}methyl)-2-furanyl]-5-(1-pyrrolidinylmethyl)-1H-benzimidazoledihydrochloride] was less than 1 µM; that for `COc1ccc2[nH]c(-c3ccc(Cc4cc(Cl)ccc4OCc4ccccc4)o3)nc2c1` [Example 100, 2-[5-({5-Chloro-2-[(phenylmethyl)oxy]phenyl}methyl)-2-furanyl]-5-(methyloxy)-1H-benzimidazole] was less than 1 µM; that for `NC(=O)c1ccc(Cc2cc(Cl)ccc2OCc2ccccc2)o1` [Example 78, 5-({5-Chloro-2-[(phenylmethyl)oxy]-phenyl}methyl)-2-furancarboxamide] was less than 1 µM.
The value for `CC(C)(C)CNC(=O)c1ccc(Cc2cc(Cl)ccc2OCc2ccccc2)o1` [Example 52, 5-({5-Chloro-2-[(phenylmethyl)oxy]phenyl}methyl)-N-(2,2-dimethylpropyl)-2-furancarboxamide] was less than 1 µM; that for `C=Cc1cnc2[nH]c(-c3ccc(Cc4cc(Cl)ccc4OCC(C)C)o3)nc2c1` [Example 137, 2-[5-({5-Chloro-2-[(2-methylpropyl)oxy]phenyl}methyl)-2-furanyl]-6-ethenyl-1H-imidazo[4,5-b]pyridine hydrochloride] was less than 1 µM.
The value for `CC(C)COc1ccc(Cl)cc1Cc1ccc(-c2nc3cscc3[nH]2)o1` [Example 109, 2-[5-({5-Chloro-2-[(2-methylpropyl)oxy]-phenyl}methyl)-2-furanyl]-1H-thieno[3,4-d]imidazole] was less than 1 µM; that for `O=C(Nc1c(F)cccc1F)c1ccc(Cc2cc(Cl)ccc2OCc2ccccc2F)o1` [Example 81, 5-[(5-Chloro-2-{[(2-fluorophenyl)methyl]oxy}phenyl)methyl]-N-(2,6-difluorophenyl)-2-furancarboxamide] was less than 1 µM.
In the case of `CC(C)COc1ccc(Cl)cc1Cc1ccc(-c2nc3cc4cn[nH]c4cc3[nH]2)o1` [Example 119, 6-[5-({5-Chloro-2-[(2-methylpropyl)oxy]phenyl}-methyl)-2-furanyl]-1,5-dihydroimidazo[4,5-f]indazole], the Ki is less than 1 µM.
The value for `CC(C)COc1ccc(Cl)cc1Cc1ccc(C(=O)NCc2ccc(C#N)cc2)o1` [Example 42, 5-({5-Chloro-2-[(2-methylpropyl)oxy]phenyl}methyl)-N-[(4-cyanophenyl)methyl]-2-furancarboxamide] was less than 1 µM; that for `O=C(Nc1c(F)cccc1F)c1ccc(Cc2cc(Cl)ccc2OCc2cc(F)c(F)cc2F)o1` [Example 88, 5-[(5-Chloro-2-{[(2,4,5-trifluorophenyl)methyl]oxy}-phenyl)methyl]-N-(2,6-difluorophenyl)-2-furancarboxamide] was less than 1 µM.
Consider `O=C(O)c1ccc(Cc2cc(Cl)ccc2OCc2cc(F)c(F)c(F)c2)o1` [Example 24, Sodium 5-[(5-chloro-2-{[(3,4,5-trifluorophenyl)methyl]oxy}phenyl)methyl]-2-furancarboxylate], for which the Ki is no more than 0.01 µM.
The value for `O=C(Nc1c(F)cccc1F)c1ccc(Cc2cc(Cl)ccc2OCc2ccccc2)o1` [Example 79, 5-({5-Chloro-2-[(phenylmethyl)oxy]-phenyl}methyl)-N-(2,6-difluorophenyl)-2-furancarboxamide] was no more than 0.01 µM; that for `O=C(Nc1ccccc1Cl)c1ccc(Cc2cc(Cl)ccc2OCc2ccccc2)o1` [Example 72, N-(2-chlorophenyl)-5-({5-chloro-2-[(phenylmethyl)oxy]-phenyl}methyl)-2-furancarboxamide] was less than 1 µM.
The value for `CC(C)COc1ccc(Cl)cc1Cc1ccc(-c2nc3cc(CCN(C)C)ccc3[nH]2)o1` [Example 163, (2-{2-[5-({5-Chloro-2-[(2-methylpropyl)oxy]-phenyl}methyl)-2-furanyl]-1H-benzimidazol-5-yl}ethyl)dimethylaminedihydrochloride] was less than 1 µM; that for `O=C(Nc1c(F)cccc1F)c1ccc(Cc2cc(Cl)ccc2OCc2c(F)cccc2F)o1` [Example 85, 5-[(5-Chloro-2-{[(2,6-difluorophenyl)methyl]oxy}-phenyl)methyl]-N-(2,6-difluorophenyl)-2-furancarboxamide] was less than 1 µM; that for `CC(C)COc1ccc(Cl)cc1Cc1ccc(-c2nc3cc(Br)cnc3[nH]2)o1` [Example 135, 6-Bromo-2-[5-({5-chloro-2-[(2-methylpropyl)oxy]phenyl}methyl)-2-furanyl]-1H-imidazo[4,5-b]pyridine hydrochloride] was greater than 1 µM.
Regarding `CC(C)NC(=O)c1ccc(Cc2cc(Cl)ccc2OCc2ccccc2)o1` [Example 49, 5-({5-Chloro-2-[(phenylmethyl)oxy]phenyl}methyl)-N-(1-methylethyl)-2-furancarboxamide], the Ki was less than 1 µM.
With `O=C(O)c1ccc(Cc2cc(Cl)ccc2OCc2ccncc2Cl)o1` [Example 17, Sodium 5-[(5-chloro-2-{[(3-chloro-4-pyridinyl)methyl]oxy}phenyl)methyl]-2-furancarboxylate], the Ki is no more than 0.01 µM.
In the case of `Cc1cccc(C)c1NC(=O)c1ccc(Cc2cc(Cl)ccc2OCc2ccccc2)o1` [Example 71, 5-({5-Chloro-2-[(phenylmethyl)oxy]-phenyl}methyl)-N-(2,6-dimethylphenyl)-2-furancarboxamide], the Ki was less than 1 µM.
The value for `CC(C)COc1ccc(Cl)cc1Cc1ccc(C(=O)NC(C)(C)C)o1` [Example 56, 5-({5-Chloro-2-[(2-methylpropyl)oxy]-phenyl}methyl)-N-(1,1-dimethylethyl)-2-furancarboxamide] was less than 1 µM; that for `Cc1cc(COc2ccc(Cl)cc2Cc2ccc(C(=O)O)o2)on1` [Example 9, Sodium 5-[(5-chloro-2-{[(3-methyl-5-isoxazolyl)methyl]oxy}phenyl)methyl]-2-furancarboxylate] was less than 1 µM.
With `CC(C)COc1ccc(Cl)cc1Cc1ccc(-c2nc3ccc(CN(C)CC(C)(C)C)cc3[nH]2)o1` [Example 153, N-({2-[5-({5-Chloro-2-[(2-methylpropyl)oxy]-phenyl}methyl)-2-furanyl]-1H-benzimidazol-5-yl}methyl)-N,2,2-trimethyl-1-propanaminedihydrochloride], the Ki was less than 1 µM.
The value for `O=C(NCc1ccccn1)c1ccc(Cc2cc(Cl)ccc2OCc2ccccc2)o1` [Example 53, 5-({5-Chloro-2-[(phenylmethyl)oxy]phenyl}methyl)-N-(2-pyridinylmethyl)-2-furancarboxamide] was no more than 0.01 µM.
As for `CC(C)CNC(=O)c1ccc(Cc2cc(Cl)ccc2OCc2ccccc2)o1` [Example 50, 5-({5-Chloro-2-[(phenylmethyl)oxy]phenyl}methyl)-N-(2-methylpropyl)-2-furancarboxamide], the Ki is less than 1 µM.
